Experimental data: patent US20260049071A1, “PROTEIN TYROSINE KINASE INHIBITOR AND MEDICAL USE THEREOF” (BEYANG THERAPEUTICS CO., LTD., priority 2022, published 2026)
Converted amounts (≈) assume the structure as drawn. Like-named read-outs stand apart in the source and are kept apart here.

Columns and labels:
[1] = statement in the summary; cited from earlier work
[2] = Compound distribution in plasma and ocular tissues after single ocular dose in Dutch belted rabbits; type: in vivo; details: eye drops 1 mg/mL (0.05 mg/eye), 0.5 h, 4 h or 8 h post-dose
Excerpt: Age-related macular degeneration and diabetic retinopathy are associated with neovascularization in the posterior eye segment Due to the corneal and conjunctival barrier, one of the main problems with topical eye drops used to treat the posterior eye segment disorders is the low-efficiency delivery of the drug to the posterior eye segment. Therefore, it is important to measure the distribution of the compound in an ophthalmic formulation in several major ocular tissues. […] Dutch belted rabbits were used in this experiment. […]
In this experiment, male Dutch belted rabbits weighed 1.5-2.5 kg were purchased from Pizhou Dongfang Breeding Co., Ltd. Any operation on the laboratory animals in this experiment was in compliance with the relevant SOP requirements of the experimental operation of 3D BioOptima, Suzhou, China, and had been approved by the Institutional Animal Care and Use Committee (IACUC) of 3D BioOptima. […] The prepared dose formulations were freshly prepared on the day of administration, samples were retained and the actual concentration of the dose formulation was determined.
On the day of the experiment, animals were administrated at 1 mg/mL (0.05 mg/eye, 50 μL/eye). […] The concentration of each analyte in the rabbit ocular tissues and plasma obtained in this experiment was determined by LC-MS/MS. […]

KDR (VEGFR2) = KDR (VEGFR2) (Homo sapiens (Human), UniProt P35968); test: Kinase inhibition, Mobility Shift Assay (VEGFR2); type: biochemical
Method in brief: (§1)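 Mobility shift assay: each kinase preincubated 10 min at room temperature with compound, then reacted with FAM-labeled peptide, MgCl2 and ATP at 28° C. for varying times. Substrate-to-product conversion read on Caliper; % inhibition normalised to no-kinase and DMSO controls, and IC50 fitted.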

EGFR = EGFR (Homo sapiens (Human), UniProt P00533); test: Kinase inhibition, Mobility Shift Assay (EGFR); type: biochemical
Method in brief: as §1

FLT1 (VEGFR1) = FLT1 (VEGFR1) (Homo sapiens (Human), UniProt P17948); test: Kinase inhibition, Mobility Shift Assay (VEGFR1); type: biochemical
Method in brief: as §1

[3] = pH 2
Description: After sonication for 10 min, fix them on a shaker and shaking for 8 h at room temperature. After shaking, sonicate for 10 min and centrifuge for 15 min at 13,000 rpm. Pipette 0.1 mL of supernatant into a new tube, shake and rinse it with 5 mL, and discard the liquid. Transfer 0.5 mL of the supernatant again to a new tube, centrifuge it for 15 min at 13,000 rpm, then collect the supernatant (if necessary, dilute with water) and analyze it by LC-MS.
The sample concentrations at 3-5 points are subjected to fitting and reticle for quantification.

FLT4 (VEGFR3) = FLT4 (VEGFR3) (Homo sapiens (Human), UniProt P35916); test: Kinase inhibition, Mobility Shift Assay (VEGFR3); type: biochemical
Method in brief: as §1

KDR (VEGFR2), sequence (P35968 790-1356): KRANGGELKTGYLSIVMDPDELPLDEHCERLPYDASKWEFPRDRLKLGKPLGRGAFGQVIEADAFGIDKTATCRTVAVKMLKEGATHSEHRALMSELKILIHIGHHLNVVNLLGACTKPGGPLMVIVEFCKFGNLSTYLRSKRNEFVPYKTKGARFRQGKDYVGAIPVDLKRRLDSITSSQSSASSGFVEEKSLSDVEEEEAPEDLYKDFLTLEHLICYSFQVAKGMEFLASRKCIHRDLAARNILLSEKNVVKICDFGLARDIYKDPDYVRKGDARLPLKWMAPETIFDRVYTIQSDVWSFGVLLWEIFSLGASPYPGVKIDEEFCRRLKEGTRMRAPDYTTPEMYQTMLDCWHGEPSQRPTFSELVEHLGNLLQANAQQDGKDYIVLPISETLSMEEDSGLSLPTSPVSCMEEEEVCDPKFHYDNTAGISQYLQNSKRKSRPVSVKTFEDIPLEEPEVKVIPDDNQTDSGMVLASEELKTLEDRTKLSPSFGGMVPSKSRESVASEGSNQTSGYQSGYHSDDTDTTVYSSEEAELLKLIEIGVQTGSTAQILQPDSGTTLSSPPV
EGFR, sequence (P00533 25-1210): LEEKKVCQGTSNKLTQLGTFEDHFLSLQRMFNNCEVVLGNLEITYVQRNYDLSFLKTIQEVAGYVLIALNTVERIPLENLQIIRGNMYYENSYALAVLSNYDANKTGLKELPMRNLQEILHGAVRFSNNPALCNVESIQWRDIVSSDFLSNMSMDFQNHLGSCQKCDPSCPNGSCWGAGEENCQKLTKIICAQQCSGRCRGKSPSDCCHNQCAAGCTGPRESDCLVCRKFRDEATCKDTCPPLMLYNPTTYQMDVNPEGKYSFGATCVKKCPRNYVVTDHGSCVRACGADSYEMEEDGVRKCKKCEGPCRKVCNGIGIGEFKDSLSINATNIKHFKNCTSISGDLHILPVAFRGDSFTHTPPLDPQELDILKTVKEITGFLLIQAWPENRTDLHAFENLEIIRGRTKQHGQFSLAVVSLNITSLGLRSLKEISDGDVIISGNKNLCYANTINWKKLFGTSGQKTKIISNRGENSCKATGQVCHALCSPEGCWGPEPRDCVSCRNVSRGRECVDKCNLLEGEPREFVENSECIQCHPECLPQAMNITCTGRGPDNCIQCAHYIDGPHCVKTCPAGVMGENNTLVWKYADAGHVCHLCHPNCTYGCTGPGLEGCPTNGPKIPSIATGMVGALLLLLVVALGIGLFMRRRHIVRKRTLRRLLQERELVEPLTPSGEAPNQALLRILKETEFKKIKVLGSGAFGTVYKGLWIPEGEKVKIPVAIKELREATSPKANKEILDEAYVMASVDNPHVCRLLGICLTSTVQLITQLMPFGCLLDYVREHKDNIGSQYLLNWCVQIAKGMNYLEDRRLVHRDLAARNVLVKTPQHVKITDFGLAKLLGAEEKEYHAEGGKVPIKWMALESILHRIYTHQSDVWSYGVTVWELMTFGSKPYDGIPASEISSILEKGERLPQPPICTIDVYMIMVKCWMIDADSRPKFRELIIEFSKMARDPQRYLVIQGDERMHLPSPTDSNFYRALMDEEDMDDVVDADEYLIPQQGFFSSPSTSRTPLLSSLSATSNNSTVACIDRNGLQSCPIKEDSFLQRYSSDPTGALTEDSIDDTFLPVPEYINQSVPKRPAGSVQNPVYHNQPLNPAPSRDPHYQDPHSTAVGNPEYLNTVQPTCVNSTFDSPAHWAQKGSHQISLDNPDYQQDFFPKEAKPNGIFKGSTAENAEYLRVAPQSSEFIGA
FLT4 (VEGFR3), sequence (P35916 25-1363): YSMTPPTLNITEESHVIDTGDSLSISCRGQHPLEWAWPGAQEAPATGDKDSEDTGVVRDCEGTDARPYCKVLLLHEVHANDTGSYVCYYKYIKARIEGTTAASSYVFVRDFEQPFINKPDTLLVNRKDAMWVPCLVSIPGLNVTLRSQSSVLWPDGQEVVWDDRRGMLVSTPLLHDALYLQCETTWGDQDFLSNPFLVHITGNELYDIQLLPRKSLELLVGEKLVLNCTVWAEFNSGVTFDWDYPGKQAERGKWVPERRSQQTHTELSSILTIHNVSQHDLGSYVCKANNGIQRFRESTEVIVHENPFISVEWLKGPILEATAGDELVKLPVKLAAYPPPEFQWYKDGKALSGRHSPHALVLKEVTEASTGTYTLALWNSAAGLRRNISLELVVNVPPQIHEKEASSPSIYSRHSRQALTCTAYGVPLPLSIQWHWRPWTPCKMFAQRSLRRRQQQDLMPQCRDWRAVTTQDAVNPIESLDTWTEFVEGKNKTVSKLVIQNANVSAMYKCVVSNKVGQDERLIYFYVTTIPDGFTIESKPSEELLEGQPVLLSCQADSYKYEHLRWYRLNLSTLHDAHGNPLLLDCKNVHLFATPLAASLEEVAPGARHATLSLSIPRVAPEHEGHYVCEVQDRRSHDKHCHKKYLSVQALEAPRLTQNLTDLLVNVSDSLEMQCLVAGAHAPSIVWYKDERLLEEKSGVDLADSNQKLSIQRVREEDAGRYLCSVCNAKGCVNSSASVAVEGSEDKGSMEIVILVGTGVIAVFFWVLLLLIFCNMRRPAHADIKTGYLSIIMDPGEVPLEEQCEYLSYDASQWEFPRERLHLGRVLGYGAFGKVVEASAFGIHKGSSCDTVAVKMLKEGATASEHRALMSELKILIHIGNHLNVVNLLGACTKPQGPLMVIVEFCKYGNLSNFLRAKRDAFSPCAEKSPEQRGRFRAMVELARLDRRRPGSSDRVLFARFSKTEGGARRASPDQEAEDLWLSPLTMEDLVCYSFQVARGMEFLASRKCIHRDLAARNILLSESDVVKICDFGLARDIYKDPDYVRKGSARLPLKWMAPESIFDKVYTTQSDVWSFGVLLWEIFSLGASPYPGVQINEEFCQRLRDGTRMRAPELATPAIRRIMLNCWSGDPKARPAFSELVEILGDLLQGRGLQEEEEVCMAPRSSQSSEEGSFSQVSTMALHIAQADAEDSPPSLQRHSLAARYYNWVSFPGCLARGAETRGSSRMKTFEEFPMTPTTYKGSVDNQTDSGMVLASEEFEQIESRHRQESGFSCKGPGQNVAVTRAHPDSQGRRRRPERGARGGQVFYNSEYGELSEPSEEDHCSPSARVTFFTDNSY
FLT1 (VEGFR1), sequence (P17948 27-1338): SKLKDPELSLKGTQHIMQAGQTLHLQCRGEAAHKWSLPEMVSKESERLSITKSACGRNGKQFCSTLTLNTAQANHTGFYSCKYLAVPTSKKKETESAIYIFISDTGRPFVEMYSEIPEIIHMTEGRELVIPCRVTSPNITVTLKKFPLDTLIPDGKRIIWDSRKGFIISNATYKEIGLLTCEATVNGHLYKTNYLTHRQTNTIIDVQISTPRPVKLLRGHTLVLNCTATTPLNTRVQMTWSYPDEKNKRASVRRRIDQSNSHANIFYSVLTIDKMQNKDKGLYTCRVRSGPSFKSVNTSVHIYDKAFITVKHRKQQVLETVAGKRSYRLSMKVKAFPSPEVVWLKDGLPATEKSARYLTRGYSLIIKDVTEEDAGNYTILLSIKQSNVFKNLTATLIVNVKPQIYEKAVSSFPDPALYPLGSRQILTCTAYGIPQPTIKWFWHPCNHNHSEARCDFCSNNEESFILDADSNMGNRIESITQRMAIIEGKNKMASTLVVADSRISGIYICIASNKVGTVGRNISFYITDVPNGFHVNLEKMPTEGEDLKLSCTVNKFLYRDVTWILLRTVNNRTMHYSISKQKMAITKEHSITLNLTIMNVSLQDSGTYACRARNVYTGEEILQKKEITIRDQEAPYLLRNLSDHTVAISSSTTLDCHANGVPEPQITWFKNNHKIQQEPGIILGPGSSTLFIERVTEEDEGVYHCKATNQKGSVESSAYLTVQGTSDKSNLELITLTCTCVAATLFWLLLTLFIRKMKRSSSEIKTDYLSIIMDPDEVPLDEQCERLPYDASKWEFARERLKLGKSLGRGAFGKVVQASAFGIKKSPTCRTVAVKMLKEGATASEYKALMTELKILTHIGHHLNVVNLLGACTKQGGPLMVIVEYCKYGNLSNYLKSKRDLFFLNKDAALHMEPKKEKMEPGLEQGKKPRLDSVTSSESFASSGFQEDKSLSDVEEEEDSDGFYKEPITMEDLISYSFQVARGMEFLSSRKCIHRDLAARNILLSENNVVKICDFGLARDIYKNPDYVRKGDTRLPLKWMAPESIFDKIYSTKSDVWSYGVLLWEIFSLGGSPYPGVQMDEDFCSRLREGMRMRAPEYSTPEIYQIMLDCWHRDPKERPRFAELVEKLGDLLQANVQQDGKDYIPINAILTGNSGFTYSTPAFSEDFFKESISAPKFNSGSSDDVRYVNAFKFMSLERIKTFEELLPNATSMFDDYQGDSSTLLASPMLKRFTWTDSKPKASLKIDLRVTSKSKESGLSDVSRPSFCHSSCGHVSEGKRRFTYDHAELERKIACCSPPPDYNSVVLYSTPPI

| drug concentration in retina [2] | drug concentration in retina ([2]; listed as axitinib) | Compound | solubility [1] [micrograms/milliliter] | IC50 (KDR (VEGFR2)) [nM] | IC50 (EGFR) [nM] | IC50 (FLT1 (VEGFR1)) [nM] | solubility [3] [mg/mL] | IC50 (FLT4 (VEGFR3)) [nM] |
| --- | --- | --- | --- | --- | --- | --- | --- | --- |
| below the lower limit of quantitation | below BLOQ | CNC(=O)c1ccccc1Sc1ccc2c(/C=C/c3ccccn3)n[nH]c2c1 [Axitinib] | < 2 | – | – | – | – | – |
| – | – | CNC(=O)c1ccccc1Sc1ccc2c(/C=C/c3ccccn3)ncn2c1 [Compound I-26, N-methyl-2-({1-[(E)-2-(pyridin-2-yl)vinyl]imidazo[1,5-a]pyridin-6-yl}thio)benzamide] | – | > 100 | > 60000 | > 100 | 0.142 (≈ 367 µM) | > 100 |
